Numbers after ± are expanded uncertainties. Blank lines part the entries; values can stand above or below the molecule they belong to.
Conditions: Liquid, Ebulliometric method (Recirculating still)

Structure (SMILES): CCN(CC)CCO [(diethylamino)ethanol]
- vapor or sublimation pressure (418.34 K): 60 ± 1.2 kPa
- vapor or sublimation pressure (435.94 K): 101.3 ± 2.1 kPa

Structure (SMILES): CCNCC [diethylamine]
- vapor or sublimation pressure (313.64 K): 60 ± 1 kPa
- vapor or sublimation pressure (328.67 K): 101.3 ± 1.8 kPa

- vapor or sublimation pressure (324.92 K): 60 ± 0.87 kPa
- vapor or sublimation pressure (337.82 K): 101.3 ± 1.6 kPa
Structure (SMILES): CO [methanol]

Source: the NIST ThermoML archive (doi:10.1021/je301219c)
